# Tests used:
# Type in all cases: in vivo
# [1] = system: Heterozygous Non-Diabetic Mice; experiment: Plasma glucose, triglycerides and body weight in heterozygous non-diabetic littermates, 11 days oral dosage; settings: for Plasma Glucose % Change / Plasma Triglycerides % Change: versus vehicle; for Change in Body Weight / Plasma Glucose Plasma Conc. / Plasma Triglycerides Plasma Conc.: ± SEM
# Description: Six to seven week old female C57 BLK SIJ-m^+/^+ Lepr^db mice (db/db) and heterozygous littermates were purchased from The Jackson Laboratory (Bar Harbor, Me.). Upon arrival the mice were quarantined for 5 days and housed in pairs in shoe-box cages containing ALPHA-dri® bedding (Shepherd Speciality Papers, Inc., Kalamazoo, Mich.). The mice were maintained at an ambient temperature of 21 to 23° C. on a 12 hour-12 hour light-dark schedule and given access to water and food ad libitum. The diet was comprised of NIH (National Institutes of Health) Rat and Mouse/Auto 6F Reduced Fat Diet No. 5K52 (PMI Nutrition International Inc., Brentwood, Mo.).
# The vehicle, used as a reference and for test compounds, was 0.5% methylcellulose dissolved in water. The compounds were either fully dissolved or uniformly suspended in the vehicle when administered to the mice.
# The db/db mice were randomly separated into five groups of eight, as were the heterozygous littermates. The groups were as follows: one vehicle control group and four groups that each received one of four doses of topiramate (TPM) (10, 30, 100, or 300 mg/kg, respectively). Topiramate or vehicle was administered orally by gavage once a day during the 8th hour of the light portion of the light-dark cycle.
# Between 18 and 24 hours after the last dose was administered, the mice were anesthetized with CO2/O2 (70:30) and blood from the retro-orbital sinus puncture was collected into 2 mL heparinized snap-top polypropylene tubes, then placed in ice.
# Plasma was separated from blood cells by centrifugation (15 minutes at 1600 g). For samples not assayed immediately, the plasma was transferred into 96-well plates and frozen at −70° C.
# Glucose and triglycerides were assayed using standard procedures for blood clinical laboratories. Specifically, the samples were analyzed using an automated Hitachi 717 autoanalyzer (Boehringer Mannheim/Hitachi 717 Autoanalyzer, Boehringer Mannheim Laboratory Systems Division, Indianapolis, Ind.). A statistical analysis of data for the drug-treated groups compared to data for the vehicle group was performed using the one-way analysis of variance (ANOVA) with Dunnett's Multiple Comparisons test.
# Following the procedure described above, the effect of topiramate on plasma glucose and triglyceride levels was determined for female diabetic db/db mice and littermates, following 11 days oral dosage, with results as listed in Table 3 and 4. Body weights are in Table 5. The abbreviation N represents the number of animals per study group.
# ob/ob mice = ob/ob mice first study: topiramate in food for 120 days; plasma glucose, insulin, triglycerides, body weight; settings: for Blood concentration Glucose / Blood concentration Insulin / Blood concentration Triglycerides: mean ± SEM, N 10
# Excerpt: It is known that ob/ob mice when allowed to eat ad libitum, develop abnormally high blood levels of insulin (hyperinsulinemia), glucose (hyperglycemia), lesions of the skin, and a high level of glycosylated hemoglobin, all of which are hallmark signs of Type II diabetes mellitus (R. R. HENRY, Ann. Intern. Med. 1996, 124, 97–103; G. W. EDELSON, Clin. Podiatr. Med. Surg. 1998, 15, 41–48; P. R. JOHNSON, M. R. GREENWOOD, B. A. HORWITZ and J. S. STERN, Annu. Rev. Nutr. 1991, 11, 325–353). Based on this knowledge of the ob/ob mouse model, two studies were designed to determine the effect of compounds of formula (I) in these mice models.
# In the first study, a uniform population of mice was divided into three groups; in one group of control mice no topiramate was added to the food for the entire 120-day study period. In a second group topiramate was added to the food in amounts sufficient to give a daily dose of 20 mg/kg for 84 days, then a daily dose of 180 mg/kg for 36 days. A third group received a daily dose of 60 mg/kg for the entire 120 days. After completion of the 120-day period, the mice were sacrificed and blood was obtained and prepared for subsequent analyses of glucose, insulin and triglycerides in plasma.
# Female ZDF rats = experiment: Blood glucose and oral glucose tolerance in female ZDF rats dosed orally for 16 days; settings: for Plasma Glucose Levels: 16 days, ± SEM
# Description: Female ZDF rats were also randomly divided into control and topiramate (30 or 100 mg/kg/day) treated groups, dosed orally for 16 days, and tested for blood glucose levels and oral glucose tolerance following glucose challenge of 2 g/kg. The effect of topiramate was as listed in Table 10 (N=8 rats per treatment group).
# [2] = TPM 1: 20 mg/kg/day 84 days then 180 mg/kg/day 36 days in food
# [3] = TPM 2: 60 mg/kg/day 120 days in food
structure (smiles),measurement,setting,value
"CC1(C)O[C@@H]2[C@@H](CO[C@@]3(COS(N)(=O)=O)OC(C)(C)O[C@@H]23)O1 [Topiramate, 2,3:4,5-bis-O-(1-methylethylidene)-β-D-fructopyranose sulfamate]",Plasma Glucose % Change,[1]; 10 mg/kg oral once a day,−1.2%
same,Plasma Triglycerides % Change,[1]; 10 mg/kg oral once a day,−0.3%
same,Change in Body Weight,[1]; 10 mg/kg oral once a day,0.5 ± 0.2 g
same,Plasma Glucose Plasma Conc.,[1]; 10 mg/kg oral once a day,145 ± 6 mg/dL
same,Plasma Triglycerides Plasma Conc.,[1]; 10 mg/kg oral once a day,141 ± 13 mg/dL
same,Plasma Glucose % Change,[1]; 30 mg/kg oral once a day,+3.8%
same,Plasma Triglycerides % Change,[1]; 30 mg/kg oral once a day,−17.5%
same,Change in Body Weight,[1]; 30 mg/kg oral once a day,0.0 ± 0.3 g
same,Plasma Glucose Plasma Conc.,[1]; 30 mg/kg oral once a day,152 ± 6 mg/dL
same,Plasma Triglycerides Plasma Conc.,[1]; 30 mg/kg oral once a day,116 ± 6 mg/dL
same,Plasma Glucose % Change,[1]; 100 mg/kg oral once a day,+0.8%
same,Plasma Triglycerides % Change,[1]; 100 mg/kg oral once a day,−34.8%
same,Change in Body Weight,[1]; 100 mg/kg oral once a day,0.2 ± 0.2 g
same,Plasma Glucose Plasma Conc.,[1]; 100 mg/kg oral once a day,148 ± 7 mg/dL
same,Plasma Triglycerides Plasma Conc.,"[1]; 100 mg/kg oral once a day, P < 0.01",92 ± 6 mg/dL
same,Plasma Glucose % Change,[1]; 300 mg/kg oral once a day,−17.2%
same,Plasma Triglycerides % Change,[1]; 300 mg/kg oral once a day,−1.8%
same,Plasma Triglycerides Plasma Conc.,[1]; 300 mg/kg oral once a day,138 ± 15 mg/dL
same,Plasma Glucose Plasma Conc.,"[1]; 300 mg/kg oral once a day, P < 0.01",121 ± 7 mg/dL
same,Change in Body Weight,"[1]; 300 mg/kg oral once a day, P < 0.05",-2.2 ± 0.5 g
same,Glucose percentage difference versus control,ob/ob mice; [2],−39%
same,Insulin percentage difference versus control,ob/ob mice; [2],−37%
same,Triglycerides percentage difference versus control,ob/ob mice; [2],−46%
same,Blood concentration Glucose,ob/ob mice; [2],183 ± 33 mg/dL
same,Blood concentration Insulin,ob/ob mice; [2],6.4 ± 0.7 ng/mL
same,Blood concentration Triglycerides,ob/ob mice; [2],103 ± 5 mg/dL
same,Glucose percentage difference versus control,ob/ob mice; [3],−41%
same,Insulin percentage difference versus control,ob/ob mice; [3],−21%
same,Triglycerides percentage difference versus control,ob/ob mice; [3],−41%
same,Blood concentration Glucose,ob/ob mice; [3],179 ± 11 mg/dL
same,Blood concentration Insulin,ob/ob mice; [3],8.0 ± 0.9 ng/mL
same,Blood concentration Triglycerides,ob/ob mice; [3],113 ± 8 mg/dL
same,body weight,"ob/ob mice; TPM 2 group (60 mg/kg/day), day 119",62.2 ± 1.2 g
same,body weight,"ob/ob mice; TPM 2 group (60 mg/kg/day), day −1 (beginning of administration)",48.4 ± 0.9 g
same,Body weight gain compared with control,"ob/ob mice; TPM 2 group (60 mg/kg/day), day −1 to day 119",Body weight gain for the control and TPM 2 groups from day −1 to day 119 was also similar.
same,Plasma Glucose Levels,"Female ZDF rats; 30 mg/kg/day oral, 60 Min after Challenge (glucose 2 g/kg), P < 0.05",342 ± 32 md/dL
same,Plasma Glucose Levels,"Female ZDF rats; 30 mg/kg/day oral, 90 Min after Challenge, P < 0.01",269 ± 32 md/dL
same,Plasma Glucose Levels,"Female ZDF rats; 30 mg/kg/day oral, 120 Min after Challenge, P < 0.01",206 ± 26 md/dL
same,Plasma Glucose Levels,"Female ZDF rats; 30 mg/kg/day oral, Time = 0",121 ± 13 md/dL
same,Plasma Glucose Levels,"Female ZDF rats; 100 mg/kg/day oral, 60 Min after Challenge (glucose 2 g/kg), P < 0.01",333 ± 32 md/dL
same,Plasma Glucose Levels,"Female ZDF rats; 100 mg/kg/day oral, 90 Min after Challenge, P < 0.01",242 ± 28 md/dL
same,Plasma Glucose Levels,"Female ZDF rats; 100 mg/kg/day oral, 120 Min after Challenge, P < 0.01",173 ± 23 md/dL
same,Plasma Glucose Levels,"Female ZDF rats; 100 mg/kg/day oral, Time = 0",129 ± 15 md/dL
same,oral glucose tolerance,"Female ZDF rats; at 60, 90 and 120 minutes after glucose challenge",improves

# From US7109174B2, “Anticonvulsant derivatives useful for preventing the development of type II diabetes mellitus and syndrome X” (Ortho-McNeil Pharmaceutical, Inc., priority 2000, dated 2006)
